# Assay results taken from paper PMC6499206, “Quantification of Volatile Metabolites Derived From Garlic (Allium sativum) in Human Urine” (Frontiers in Nutrition, 2019).
# Assay: Quantification of garlic-derived metabolites in human urine after ingestion of 3 g raw garlic (SIDA, SAFE, HRGC-MS / HRGC-GC-MS)
# Format: in vivo
# Conditions: for metabolite concentration in urine / metabolite concentration in urine, creatinine-normalized: 3 g raw garlic
# Description: Human urine samples were obtained from 18 volunteers (age 22–38 years, mean 27 years; 11 females, 7 males); thereby, one volunteer conducted the whole experimental series twice. At the time of examination, volunteers reported no known illness that might have potentially influenced the metabolism or the excretion of urine. The test persons were instructed to avoid foods that were rich in sulfur-containing substances at the testing day as well as 2 days preceding the testing day, namely garlic, onion, wild garlic, chives, cabbage, and leek, and were only allowed to consume the garlic sample provided in the course of the experiments. Additionally, subjects were asked to keep records of the food (including food supplements) and beverages they consumed during these 3 testing days. Generally, the overall panelists' requirements were in accordance with our previous studies ([5], [16]).
# On the sampling day, the outer garlic cloves of a whole garlic bulb were peeled and cut into ~3 mm cubes by using a garlic cutter (Genius GmbH, Limburg/Lahn, Germany). Subsequently these cubes were thoroughly mixed and aliquoted into 3 g portions. Three to four test persons conducted the experiment at the same day. Each test person was asked to ingest a garlic portion of 3 g. In total, eight consecutive urine samples were provided by each test person, comprising one whole urine set. The samples were collected in sterile brown glass bottles, with sampling times as follows: one sample was provided directly prior to garlic consumption. The series of the second to eighth sample was then obtained at about 0.5, 1, 2, 4, 6, 8, and 24 h after garlic consumption, respectively. Between the first urine sample (prior to garlic consumption) and the seventh urine sample (8 h after garlic consumption) test persons only spent urine at the specific time points mentioned before. Another sample was provided at the next morning (24 h after garlic consumption). Between the samples provided 8 and 24 h after garlic consumption no urine was collected. All samples were immediately placed into a −80°C freezer and were kept frozen until further analysis.
# The samples of each set were termed according to their sampling time. The following list provides the time intervals that are related to the respective sample name: • - pre: before garlic consumption • - 0.5 h post: 0.4–0.8 h after garlic consumption • - 1 h post: 0.9–1.3 h after garlic consumption • - 2 h post: 1.8 h−2.2 h after garlic consumption • - 4 h post: 3.8–4.4 h after garlic consumption • - 6 h post: 5.8–6.4 h after garlic consumption • - 8 h post: 7.8–8.4 h after garlic consumption • - 24 h post: 23.8–25.6 h after garlic consumption
# A creatinine kit (Labor+Technik Eberhard Lehmann GmbH, Berlin, Germany) was used to determine the creatinine content in each urine sample. The determination principle of this kit is based on the reaction of creatinine with picric acid under basic conditions (Jaffé reaction). The formed complex was detected photometrically at a wavelength of 492 nm.
# For quantification purposes, the deuterated standards ^2H3-AMS, ^2H3-AMSO, and ^2H3-AMSO2 were added to the sample and stirred for 10 min. Subsequently, DCM was added in a ratio of 1:2 (DCM/human urine; v/v) and this solution was stirred for further 30 min at room temperature. To isolate the volatile fraction from the urine samples we then applied SAFE-distillation ([17]), thereby distilling the respective samples at 50°C. After completion of the distillation process, 10 mL of DCM were applied in each case to rinse the SAFE apparatus and to ensure complete transition of the volatile compounds. This process was repeated with another 10 mL of DCM. After thawing, the obtained aqueous distillate phase was extracted three times with 25 mL DCM. The organic phases were combined, dried over anhydrous Na2SO4 and concentrated to a total volume of 100 μL by means of Vigreux distillation and subsequent micro-distillation at 50°C. […]
smiles,measurement,setting,value
"C=CCSC [AMS, allyl methyl sulfide]",concentration in urine compared with human milk,"3 g raw garlic in both studies, milk data ref 20",comparable excretion levels in both media
same,metabolite concentration in urine,"U I, 0.5 h post (0.55 h)",0.9 µg/kg
same,"metabolite concentration in urine, creatinine-normalized","U I, 0.5 h post (0.55 h)",0.1 µg/mmol creatinine
same,metabolite concentration in urine,"U I, 1 h post (1.03 h)",0.7 µg/kg
same,"metabolite concentration in urine, creatinine-normalized","U I, 1 h post (1.03 h)",0.8 µg/mmol creatinine
same,metabolite concentration in urine,"U I, 2 h post (2.05 h)",1.7 µg/kg
same,"metabolite concentration in urine, creatinine-normalized","U I, 2 h post (2.05 h)",0.8 µg/mmol creatinine
same,metabolite concentration in urine,"U I, 4 h post (4.05 h)",1.6 µg/kg
same,"metabolite concentration in urine, creatinine-normalized","U I, 4 h post (4.05 h)",0.2 µg/mmol creatinine
same,metabolite concentration in urine,"U I, 6 h post (6.05 h)",1.5 µg/kg
same,"metabolite concentration in urine, creatinine-normalized","U I, 6 h post (6.05 h)",0.2 µg/mmol creatinine
same,metabolite concentration in urine,"U I, 8 h post (8.05 h)",0.7 µg/kg
same,"metabolite concentration in urine, creatinine-normalized","U I, 8 h post (8.05 h)",0.1 µg/mmol creatinine
same,metabolite concentration in urine,"U I, 24 h post (25.55 h)",traces^1
same,"metabolite concentration in urine, creatinine-normalized","U I, 24 h post (25.55 h)",traces^1
same,metabolite concentration in urine,"U I, pre (-0.03 h)",< LOD^1
same,"metabolite concentration in urine, creatinine-normalized","U I, pre (-0.03 h)",< LOD^1
same,metabolite concentration in urine,"U II, 0.5 h post (0.50 h)",0.5 µg/kg
same,"metabolite concentration in urine, creatinine-normalized","U II, 0.5 h post (0.50 h)",0.1 µg/mmol creatinine
same,metabolite concentration in urine,"U II, 1 h post (1.00 h)",0.9 µg/kg
same,"metabolite concentration in urine, creatinine-normalized","U II, 1 h post (1.00 h)",0.3 µg/mmol creatinine
same,metabolite concentration in urine,"U II, 2 h post (2.00 h)",0.5 µg/kg
same,"metabolite concentration in urine, creatinine-normalized","U II, 2 h post (2.00 h)",0.4 µg/mmol creatinine
same,metabolite concentration in urine,"U II, 4 h post (4.00 h)",0.7 µg/kg
same,"metabolite concentration in urine, creatinine-normalized","U II, 4 h post (4.00 h)",0.1 µg/mmol creatinine
same,metabolite concentration in urine,"U II, 6 h post (6.00 h)",0.4 µg/kg
same,"metabolite concentration in urine, creatinine-normalized","U II, 6 h post (6.00 h)",0.04 µg/mmol creatinine
same,metabolite concentration in urine,"U II, 8 h post (8.00 h)",0.2 µg/kg
same,"metabolite concentration in urine, creatinine-normalized","U II, 8 h post (8.00 h)",0.02 µg/mmol creatinine
same,metabolite concentration in urine,"U II, 24 h post (24.12 h)",traces^1
same,"metabolite concentration in urine, creatinine-normalized","U II, 24 h post (24.12 h)",traces^1
same,metabolite concentration in urine,"U II, pre (-0.13 h)",< LOD^1
same,"metabolite concentration in urine, creatinine-normalized","U II, pre (-0.13 h)",< LOD^1
same,metabolite concentration in urine,"U III, 0.5 h post (0.53 h)",0.6 µg/kg
same,"metabolite concentration in urine, creatinine-normalized","U III, 0.5 h post (0.53 h)",0.3 µg/mmol creatinine
same,metabolite concentration in urine,"U III, 1 h post (1.07 h)",0.6 µg/kg
same,"metabolite concentration in urine, creatinine-normalized","U III, 1 h post (1.07 h)",0.8 µg/mmol creatinine
same,metabolite concentration in urine,"U III, 2 h post (2.18 h)",1.2 µg/kg
same,"metabolite concentration in urine, creatinine-normalized","U III, 2 h post (2.18 h)",0.7 µg/mmol creatinine
same,metabolite concentration in urine,"U III, 4 h post (4.35 h)",0.8 µg/kg
same,"metabolite concentration in urine, creatinine-normalized","U III, 4 h post (4.35 h)",0.3 µg/mmol creatinine
same,metabolite concentration in urine,"U III, 6 h post (6.35 h)",0.6 µg/kg
same,"metabolite concentration in urine, creatinine-normalized","U III, 6 h post (6.35 h)",0.1 µg/mmol creatinine
same,metabolite concentration in urine,"U III, 8 h post (8.43 h)",0.4 µg/kg
same,"metabolite concentration in urine, creatinine-normalized","U III, 8 h post (8.43 h)",0.1 µg/mmol creatinine
same,metabolite concentration in urine,"U III, 24 h post (23.90 h)",traces^1
same,"metabolite concentration in urine, creatinine-normalized","U III, 24 h post (23.90 h)",traces^1
same,metabolite concentration in urine,"U III, pre (-0.03 h)",traces^1
same,"metabolite concentration in urine, creatinine-normalized","U III, pre (-0.03 h)",traces^1
same,metabolite concentration in urine,"U IV, 0.5 h post (0.55 h)",0.7 µg/kg
same,"metabolite concentration in urine, creatinine-normalized","U IV, 0.5 h post (0.55 h)",0.1 µg/mmol creatinine
same,metabolite concentration in urine,"U IV, 1 h post (1.05 h)",0.7 µg/kg
same,"metabolite concentration in urine, creatinine-normalized","U IV, 1 h post (1.05 h)",0.5 µg/mmol creatinine
same,metabolite concentration in urine,"U IV, 2 h post (2.12 h)",0.7 µg/kg
same,"metabolite concentration in urine, creatinine-normalized","U IV, 2 h post (2.12 h)",0.4 µg/mmol creatinine
same,metabolite concentration in urine,"U IV, 4 h post (4.05 h)",0.8 µg/kg
same,"metabolite concentration in urine, creatinine-normalized","U IV, 4 h post (4.05 h)",0.2 µg/mmol creatinine
same,metabolite concentration in urine,"U IV, 6 h post (6.08 h)",0.6 µg/kg
